Source: article PMC10004634 (PLOS ONE, 2023)
Where two headings read alike, the source gives them in different places.

What was measured:
Assay in all cases: biochemical
Design in all cases: KINOMEscan scanMAX competition binding, DNA-tagged kinases, qPCR read-out, percent control at 300 nM
[1] = target: T1, ABL1(F317L)-nonphosphorylated (Homo sapiens, UniProt P00519, F317L)
T1 construct: nonphosphorylated

[2] = target: RAF1 (Homo sapiens, UniProt P04049)
[3] = target: T2, DRAK1 (Homo sapiens, UniProt Q9UEE5)
T2 construct: gene STK17A

[4] = target: ACVR1B (Homo sapiens, UniProt P36896)
[5] = target: T3, ABL1(Q252H)-phosphorylated (Homo sapiens, UniProt P00519, Q252H)
T3 construct: phosphorylated

[6] = target: T4, HPK1 (Homo sapiens, UniProt Q92918)
T4 construct: gene MAP4K1

[7] = target: LYN (Homo sapiens, UniProt P07948)
[8] = target: PRKD1 (Homo sapiens, UniProt Q15139)
PRKD1, sequence (Q15139 whole entry): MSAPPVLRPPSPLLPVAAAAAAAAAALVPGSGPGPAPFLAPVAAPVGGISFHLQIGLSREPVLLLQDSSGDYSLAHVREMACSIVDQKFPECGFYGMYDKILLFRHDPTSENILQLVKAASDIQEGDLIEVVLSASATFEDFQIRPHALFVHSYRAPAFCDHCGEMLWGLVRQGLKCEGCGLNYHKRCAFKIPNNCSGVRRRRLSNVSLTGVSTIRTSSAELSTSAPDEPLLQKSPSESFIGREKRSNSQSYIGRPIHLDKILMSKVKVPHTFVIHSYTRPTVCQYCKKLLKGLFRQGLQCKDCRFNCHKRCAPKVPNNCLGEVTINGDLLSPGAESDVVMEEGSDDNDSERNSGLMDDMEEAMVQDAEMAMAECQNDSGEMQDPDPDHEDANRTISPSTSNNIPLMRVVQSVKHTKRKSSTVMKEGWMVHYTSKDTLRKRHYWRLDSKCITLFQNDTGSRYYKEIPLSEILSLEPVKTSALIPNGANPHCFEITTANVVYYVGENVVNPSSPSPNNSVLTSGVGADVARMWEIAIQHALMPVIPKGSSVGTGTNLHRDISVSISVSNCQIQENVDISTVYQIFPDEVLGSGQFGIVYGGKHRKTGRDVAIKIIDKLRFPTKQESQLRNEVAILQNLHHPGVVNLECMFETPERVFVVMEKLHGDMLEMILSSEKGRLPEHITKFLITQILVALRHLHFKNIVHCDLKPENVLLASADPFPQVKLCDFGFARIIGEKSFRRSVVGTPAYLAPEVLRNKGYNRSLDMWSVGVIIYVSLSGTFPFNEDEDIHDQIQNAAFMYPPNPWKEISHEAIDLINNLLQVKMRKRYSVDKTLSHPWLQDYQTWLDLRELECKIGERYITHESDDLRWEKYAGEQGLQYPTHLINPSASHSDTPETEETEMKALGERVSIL

[9] = target: PIP5K1A (Homo sapiens, UniProt Q99755)
PIP5K1A, sequence (Q99755 whole entry): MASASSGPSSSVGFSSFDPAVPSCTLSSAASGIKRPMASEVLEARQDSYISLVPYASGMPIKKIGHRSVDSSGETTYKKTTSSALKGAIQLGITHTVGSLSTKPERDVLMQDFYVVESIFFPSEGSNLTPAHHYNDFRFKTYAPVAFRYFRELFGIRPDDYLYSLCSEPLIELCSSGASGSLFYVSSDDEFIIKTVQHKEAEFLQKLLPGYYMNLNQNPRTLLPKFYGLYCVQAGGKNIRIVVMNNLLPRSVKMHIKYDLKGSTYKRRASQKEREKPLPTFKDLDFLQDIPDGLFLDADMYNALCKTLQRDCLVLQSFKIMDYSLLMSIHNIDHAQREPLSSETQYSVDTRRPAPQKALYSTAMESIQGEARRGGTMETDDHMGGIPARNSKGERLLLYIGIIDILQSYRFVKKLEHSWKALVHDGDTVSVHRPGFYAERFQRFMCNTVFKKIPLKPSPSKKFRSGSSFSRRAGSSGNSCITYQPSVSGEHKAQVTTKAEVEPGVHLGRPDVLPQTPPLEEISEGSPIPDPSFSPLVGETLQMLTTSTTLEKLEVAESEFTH

[10] = target: CAMKK1 (Homo sapiens, UniProt Q8N5S9)
CAMKK1, sequence (Q8N5S9 whole entry): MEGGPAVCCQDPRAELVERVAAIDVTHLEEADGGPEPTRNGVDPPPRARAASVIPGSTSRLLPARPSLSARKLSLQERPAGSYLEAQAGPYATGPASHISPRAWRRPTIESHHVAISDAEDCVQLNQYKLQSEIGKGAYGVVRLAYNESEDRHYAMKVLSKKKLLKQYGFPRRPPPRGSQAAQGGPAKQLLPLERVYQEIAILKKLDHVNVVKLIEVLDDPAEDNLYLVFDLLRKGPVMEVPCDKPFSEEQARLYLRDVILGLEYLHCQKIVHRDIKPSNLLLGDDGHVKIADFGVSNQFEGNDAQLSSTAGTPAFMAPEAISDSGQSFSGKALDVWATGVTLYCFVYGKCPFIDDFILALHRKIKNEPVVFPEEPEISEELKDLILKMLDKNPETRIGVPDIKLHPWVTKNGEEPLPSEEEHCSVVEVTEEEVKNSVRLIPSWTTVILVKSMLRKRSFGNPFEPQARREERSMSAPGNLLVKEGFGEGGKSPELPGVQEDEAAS

[11] = target: T5, QSK (Homo sapiens, UniProt Q9Y2K2)
T5 construct: gene SIK3

[12] = target: MAPKAPK2 (Homo sapiens, UniProt P49137)
[13] = target: EPHA7 (Homo sapiens, UniProt Q15375)
EPHA7, sequence (Q15375 whole entry): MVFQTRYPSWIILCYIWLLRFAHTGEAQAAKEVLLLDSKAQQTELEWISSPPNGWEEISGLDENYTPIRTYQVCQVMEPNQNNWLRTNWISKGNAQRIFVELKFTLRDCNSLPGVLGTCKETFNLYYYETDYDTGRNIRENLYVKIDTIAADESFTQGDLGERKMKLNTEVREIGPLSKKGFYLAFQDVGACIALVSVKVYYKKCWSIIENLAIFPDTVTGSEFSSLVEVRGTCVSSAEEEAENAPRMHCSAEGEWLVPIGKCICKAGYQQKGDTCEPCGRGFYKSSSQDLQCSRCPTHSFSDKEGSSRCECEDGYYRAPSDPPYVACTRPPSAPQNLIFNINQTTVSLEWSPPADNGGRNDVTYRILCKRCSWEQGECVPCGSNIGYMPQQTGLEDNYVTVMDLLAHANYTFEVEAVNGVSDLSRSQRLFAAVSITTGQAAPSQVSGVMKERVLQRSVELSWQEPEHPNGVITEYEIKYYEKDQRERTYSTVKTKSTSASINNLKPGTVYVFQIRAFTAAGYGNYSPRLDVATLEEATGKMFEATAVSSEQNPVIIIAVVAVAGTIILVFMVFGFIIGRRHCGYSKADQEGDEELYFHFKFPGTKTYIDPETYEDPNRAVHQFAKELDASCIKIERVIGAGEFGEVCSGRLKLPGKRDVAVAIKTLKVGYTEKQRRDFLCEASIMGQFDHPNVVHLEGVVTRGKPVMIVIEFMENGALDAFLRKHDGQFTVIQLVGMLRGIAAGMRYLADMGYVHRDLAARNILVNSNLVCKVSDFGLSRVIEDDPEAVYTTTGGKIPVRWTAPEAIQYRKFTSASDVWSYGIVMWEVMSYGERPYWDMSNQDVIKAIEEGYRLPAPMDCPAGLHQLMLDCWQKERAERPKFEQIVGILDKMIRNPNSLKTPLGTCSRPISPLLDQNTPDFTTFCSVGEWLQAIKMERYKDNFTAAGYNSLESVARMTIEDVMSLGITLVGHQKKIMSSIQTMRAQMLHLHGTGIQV

[14] = target: CDKL1 (Homo sapiens, UniProt Q00532)
CDKL1, sequence (Q00532 whole entry): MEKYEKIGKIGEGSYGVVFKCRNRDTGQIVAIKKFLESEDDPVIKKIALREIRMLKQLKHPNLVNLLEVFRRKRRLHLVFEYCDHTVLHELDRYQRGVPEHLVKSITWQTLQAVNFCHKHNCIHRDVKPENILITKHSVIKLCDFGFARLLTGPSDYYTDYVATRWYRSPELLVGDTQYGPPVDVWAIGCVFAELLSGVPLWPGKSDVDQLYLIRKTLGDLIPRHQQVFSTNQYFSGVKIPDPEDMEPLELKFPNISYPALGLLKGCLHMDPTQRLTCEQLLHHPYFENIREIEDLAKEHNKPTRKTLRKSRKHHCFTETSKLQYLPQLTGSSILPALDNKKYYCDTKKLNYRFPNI

[15] = target: CHEK2 (Homo sapiens, UniProt O96017)
[16] = target: T6, ADCK4 (Homo sapiens, UniProt Q96D53)
T6 construct: gene COQ8B

[17] = target: RET(V804L) (Homo sapiens, UniProt P07949, V804L)
[18] = target: T7, p38-beta (Homo sapiens, UniProt Q15759)
T7 construct: gene MAPK11

[19] = target: PLK4 (Homo sapiens, UniProt O00444)
[20] = target: T8, ADCK3 (Homo sapiens, UniProt Q8NI60)
T8 construct: gene COQ8A
T8 sequence (Q8NI60 whole entry): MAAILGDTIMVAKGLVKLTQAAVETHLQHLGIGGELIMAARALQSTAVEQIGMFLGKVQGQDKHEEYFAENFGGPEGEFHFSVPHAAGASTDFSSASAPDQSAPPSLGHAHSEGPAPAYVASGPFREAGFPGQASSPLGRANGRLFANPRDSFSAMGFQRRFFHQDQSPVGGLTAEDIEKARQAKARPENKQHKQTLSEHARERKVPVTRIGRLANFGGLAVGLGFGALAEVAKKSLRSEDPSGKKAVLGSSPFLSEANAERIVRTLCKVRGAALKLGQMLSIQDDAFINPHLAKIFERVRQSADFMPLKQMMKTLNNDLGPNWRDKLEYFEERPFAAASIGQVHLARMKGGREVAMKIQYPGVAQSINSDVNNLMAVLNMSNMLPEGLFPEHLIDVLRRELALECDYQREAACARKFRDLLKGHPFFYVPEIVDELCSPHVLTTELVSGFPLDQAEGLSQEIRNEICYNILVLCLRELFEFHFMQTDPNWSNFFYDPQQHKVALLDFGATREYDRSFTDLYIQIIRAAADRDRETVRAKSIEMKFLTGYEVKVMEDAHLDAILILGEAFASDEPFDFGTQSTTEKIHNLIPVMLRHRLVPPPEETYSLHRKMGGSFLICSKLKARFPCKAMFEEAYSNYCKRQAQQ

[21] = target: T9, YSK1 (Homo sapiens, UniProt O00506)
T9 construct: gene STK25

[22] = target: MYLK4 (Homo sapiens, UniProt Q86YV6)
MYLK4, sequence (Q86YV6 whole entry): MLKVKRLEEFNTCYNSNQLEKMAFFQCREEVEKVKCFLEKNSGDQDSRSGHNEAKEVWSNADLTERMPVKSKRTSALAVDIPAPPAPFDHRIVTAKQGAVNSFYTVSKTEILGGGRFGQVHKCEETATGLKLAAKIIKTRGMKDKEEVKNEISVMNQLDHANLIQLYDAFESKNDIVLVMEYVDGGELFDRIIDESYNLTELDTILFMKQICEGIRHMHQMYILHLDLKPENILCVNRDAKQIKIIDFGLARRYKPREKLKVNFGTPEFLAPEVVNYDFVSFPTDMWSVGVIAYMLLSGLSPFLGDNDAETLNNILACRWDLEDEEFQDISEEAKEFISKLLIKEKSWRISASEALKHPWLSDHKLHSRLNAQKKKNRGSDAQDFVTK

[23] = target: T10, RPS6KA4(Kin.Dom.1-N-terminal) (Homo sapiens, UniProt O75676)
T10 construct: Kin.Dom.1-N-terminal

[24] = read-out: Percent control / Acalabrutinib
[25] = read-out: Percent control / Ibrutinib
[26] = read-out: Percent control / Tirabrutinib
[27] = read-out: Percent control / Zanubrutinib

RAF1, sequence (P04049 whole entry): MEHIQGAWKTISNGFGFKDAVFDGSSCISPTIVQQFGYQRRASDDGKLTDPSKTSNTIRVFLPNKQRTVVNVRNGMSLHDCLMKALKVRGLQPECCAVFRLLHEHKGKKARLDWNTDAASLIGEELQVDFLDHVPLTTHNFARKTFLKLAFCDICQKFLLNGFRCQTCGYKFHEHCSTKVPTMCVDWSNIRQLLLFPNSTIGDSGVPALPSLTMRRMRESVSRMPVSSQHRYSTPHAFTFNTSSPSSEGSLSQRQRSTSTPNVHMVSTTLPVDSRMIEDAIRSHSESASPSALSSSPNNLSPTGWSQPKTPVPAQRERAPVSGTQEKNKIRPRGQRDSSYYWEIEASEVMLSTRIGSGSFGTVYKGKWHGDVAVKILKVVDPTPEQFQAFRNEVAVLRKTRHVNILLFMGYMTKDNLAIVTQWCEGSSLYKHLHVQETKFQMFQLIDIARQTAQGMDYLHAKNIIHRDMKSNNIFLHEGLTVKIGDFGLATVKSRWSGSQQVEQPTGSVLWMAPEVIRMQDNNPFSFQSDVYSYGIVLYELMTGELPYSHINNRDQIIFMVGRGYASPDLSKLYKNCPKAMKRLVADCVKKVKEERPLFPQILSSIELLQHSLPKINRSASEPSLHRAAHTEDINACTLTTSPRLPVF

In the case of `CC#CC(=O)N1CCC[C@H]1c1nc(-c2ccc(C(=O)Nc3ccccn3)cc2)c2c(N)nccn12` [Acalabrutinib], the remaining binding at 0.3 µM [1, 24] is reported as 78%, the remaining binding at 0.3 µM [2, 24] is reported as 75% and the remaining binding at 0.3 µM [3, 24] is reported as 95%. It also gave a remaining binding at 0.3 µM [4, 24] of 99%, a remaining binding at 0.3 µM [5, 24] of 86% and a remaining binding at 0.3 µM [6, 24] of 93%. It also gave a remaining binding at 0.3 µM [7, 24] of 88%, a remaining binding at 0.3 µM [8, 24] of 95% and a remaining binding at 0.3 µM [9, 24] of 83%. The remaining binding at 0.3 µM [10, 24] was 92%, the remaining binding at 0.3 µM [11, 24] was 90% and the remaining binding at 0.3 µM [12, 24] was 72%. It also gave a remaining binding at 0.3 µM [13, 24] of 99%, a remaining binding at 0.3 µM [14, 24] of 93% and a remaining binding at 0.3 µM [15, 24] of 84%. The remaining binding at 0.3 µM [16, 24] was 96% and the remaining binding at 0.3 µM [17, 24] was 99%.

Compound `C=CC(=O)N1CCC[C@@H](n2nc(-c3ccc(Oc4ccccc4)cc3)c3c(N)ncnc32)C1` [Ibrutinib] has a remaining binding at 0.3 µM [1, 25] of 54%, a remaining binding at 0.3 µM [18, 25] of 85% and a remaining binding at 0.3 µM [19, 25] of 86%. For the same compound, the remaining binding at 0.3 µM [3, 25] was 74%, the remaining binding at 0.3 µM [20, 25] was 98% and the remaining binding at 0.3 µM [21, 25] was 85%. The remaining binding at 0.3 µM [22, 25] was 94% and the remaining binding at 0.3 µM [23, 25] was 87%.

Compound `CC#CC(=O)N1CC[C@@H](n2c(=O)n(-c3ccc(Oc4ccccc4)cc3)c3c(N)ncnc32)C1` [Tirabrutinib] has a remaining binding at 0.3 µM [5, 26] of 87%, a remaining binding at 0.3 µM [7, 26] of 76% and a remaining binding at 0.3 µM [20, 26] of 95%.

`C=CC(=O)N1CCC([C@@H]2CCNc3c(C(N)=O)c(-c4ccc(Oc5ccccc5)cc4)nn32)CC1` [Zanubrutinib] showed a remaining binding at 0.3 µM [18, 27] of 82%, a remaining binding at 0.3 µM [2, 27] of 88% and a remaining binding at 0.3 µM [19, 27] of 84%. For the same compound, the remaining binding at 0.3 µM [4, 27] was 92%, the remaining binding at 0.3 µM [6, 27] was 100% and the remaining binding at 0.3 µM [8, 27] was 82%. It also gave a remaining binding at 0.3 µM [9, 27] of 92%, a remaining binding at 0.3 µM [10, 27] of 87% and a remaining binding at 0.3 µM [11, 27] of 45%. It also gave a remaining binding at 0.3 µM [21, 27] of 88%, a remaining binding at 0.3 µM [22, 27] of 96% and a remaining binding at 0.3 µM [23, 27] of 100%. The remaining binding at 0.3 µM [12, 27] was 96%, the remaining binding at 0.3 µM [13, 27] was 97% and the remaining binding at 0.3 µM [14, 27] was 82%. The remaining binding at 0.3 µM [15, 27] was 98%, the remaining binding at 0.3 µM [16, 27] was 100% and the remaining binding at 0.3 µM [17, 27] was 100%.
